Test results published in patent US20260159512A1, “BCAT2 INHIBITORS” (AGIOS PHARMACEUTICALS, INC., priority 2021, published 2026).

Target: T1, BCAT2 (Homo sapiens, UniProt O15382)
T1 sequence (O15382 28-392): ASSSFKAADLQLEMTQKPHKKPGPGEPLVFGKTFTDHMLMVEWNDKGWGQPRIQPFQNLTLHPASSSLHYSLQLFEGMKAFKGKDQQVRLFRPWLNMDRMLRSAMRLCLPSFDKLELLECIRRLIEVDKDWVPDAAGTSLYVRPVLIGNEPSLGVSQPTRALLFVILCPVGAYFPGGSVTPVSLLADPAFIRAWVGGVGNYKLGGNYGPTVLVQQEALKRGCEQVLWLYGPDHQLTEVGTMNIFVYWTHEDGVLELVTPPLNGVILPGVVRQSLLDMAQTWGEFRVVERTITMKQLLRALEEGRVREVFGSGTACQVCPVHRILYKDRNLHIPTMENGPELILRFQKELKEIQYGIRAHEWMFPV
Assay: BCAT2 in vitro enzyme inhibition assay (resazurin/diaphorase-coupled fluorescence)
Format: biochemical
Conditions: average where tested multiple times
Description: BCAT2 In Vitro Enzyme Inhibition Assay
1.67× hBCAT2 Enzyme Mix: 0.33 μg/mL hBCAT2, 1× Buffer
2.5× Substrate Mix: 460 μM L-leucine, 420 μM α-KetoGlutarate, 10 U/mL glutamate dehydrogenase, 10 mM NAD, 30 μg/mL diaphorase, 20 μm Resazurin
BCAT2 enzyme stock solution was diluted to prepare a 1.67× hBCAT2 Enzyme Mix. 1 μL of test compound was first added to the reaction wells followed by 30 μL of 1.67× hBCAT2 Enzyme Mix and incubated at room temperature (25° C.) for one hour. Meanwhile the Substrate Mix was prepared. The reaction was initiated by the addition of 20 μL of the 2.5× Substrate Mix, bringing the final reaction mix of all components to 1×. Reactions were quenched after one hour by the addition of 25 μL of 6% SDS and reaction progress was measured via fluorescence read (Ex 540/Em 590).
Test Compound Preparation:
Test compounds were prepared at 50× final concentration in DMSO, 1 to 3 dilutions were made for 10 points. The compounds were added to the assay as a 1 to 50 dilution (1 μL in 50 μL) to yield a top assay final concentration of 100 μM, decreasing 3-fold for 10 points. Each compound dilution series test also included an assay max (1 μL DMSO Added in lieu of compound, Full Reaction Components Included) and Min (1 μL DMSO Added in lieu of compound, 30 μl of 1.67× hBCAT2 Enzyme Mix replated by 30 μL of 1× Buffer). All tests were performed in technical duplicate.
Where a compound was tested multiple times, the average value of the tests is reported.

| SMILES | IC50 |
| --- | --- |
| CC(C)Cc1nc2cnc(-c3ccn(C(F)F)n3)cc2n1[C@H]1C[C@H](O)C[C@@H](NC(=O)c2ncc(Cl)s2)C1 (single isomer, unassigned) [Example 212] | > 1000 nM |
| CO[C@H]1C[C@H](NC(=O)c2ncc(Cl)s2)C[C@H](n2c(CC(C)C)nc3cnc(-c4ccccn4)cc32)C1 (stereo in doubt) [Example 425, 5-chloro-N-((1R,3S,5S)-3-(2-isobutyl-6-(pyridin-2-yl)-1H-imidazo[4,5-c]pyridin-1-yl)-5-methoxycyclohexyl)thiazole-2-carboxamide] | > 1000 nM |
| CC(C)Cc1nc2cnc(-c3nc[nH]n3)cc2n1[C@@H]1CCC[C@H](NC(=O)c2ncc(Cl)s2)[C@@H]1O [Example 408, 5-chloro-N-((1S,2S,3R)-2-hydroxy-3-(2-isobutyl-6-(1H-1,2,4-triazol-3-yl)-1H-imidazo[4,5-c]pyridin-1-yl)cyclohexyl)thiazole-2-carboxamide] | ≤ 100 nM |
| CO[C@@H]1C[C@@H](NC(=O)c2ncc(Cl)s2)C[C@@H](n2c(CC(C)C)nc3cnc(-n4nccn4)cc32)C1 (single isomer, unassigned) [Example 422] | > 1000 nM |
| CC(=O)N[C@H](c1nc2cnc(-c3nc[nH]n3)cc2n1[C@@H]1CCC[C@H](NC(=O)c2ncc(Cl)s2)C1)C(C)C [Example 368, N-((1S,3R)-3-(2-((S)-1-acetamido-2-methylpropyl)-6-(1H-1,2,4-triazol-3-yl)-1H-imidazo[4,5-c]pyridin-1-yl)cyclohexyl)-5-chlorothiazole-2-carboxamide] | > 1000 nM |
| O=C(NC1COCC(n2c(-c3ncccc3F)nc3cnc(-n4ccnn4)cc32)C1)c1ncc(C(F)F)s1 (single isomer, unassigned) [Example 145, 5-(difluoromethyl)-N-(5-(2-(3-fluoropyridin-2-yl)-6-(1H-1,2,3-triazol-1-yl)-1H-imidazo[4,5-c]pyridin-1-yl)tetrahydro-2H-pyran-3-yl)thiazole-2-carboxamide] | > 1000 nM |
| CC(C)Cc1nc2cnc(-c3nc[nH]n3)cc2n1[C@H]1C[C@@H](NC(=O)c2ccc(Cl)s2)CC(F)(F)C1 (stereo in doubt) [Example 453, 5-chloro-N-((1R,5S)-3,3-difluoro-5-(2-isobutyl-6-(1H-1,2,4-triazol-3-yl)-1H-imidazo[4,5-c]pyridin-1-yl)cyclohexyl)thiophene-2-carboxamide] | 100 to 500 nM |
| O=C(NC1COCC(n2c(-c3ccccn3)nc3cnc(-n4ccnn4)cc32)C1)c1ncc(C(F)F)s1 (single isomer, unassigned) [Example 147, 5-(difluoromethyl)-N-(5-(2-(pyridin-2-yl)-6-(1H-1,2,3-triazol-1-yl)-1H-imidazo[4,5-c]pyridin-1-yl)tetrahydro-2H-pyran-3-yl)thiazole-2-carboxamide] | > 1000 nM |
| CO[C@@H]1C[C@@H](NC(=O)c2ncc(Cl)s2)C[C@@H](n2c(CC(C)C)nc3cnc(-c4nc(C)co4)cc32)C1 [Example 410, 5-chloro-N-((1S,3R,5R)-3-(2-isobutyl-6-(4-methyloxazol-2-yl)-1H-imidazo[4,5-c]pyridin-1-yl)-5-methoxycyclohexyl)thiazole-2-carboxamide] | > 1000 nM |
| CC(=O)N1CC(NC(=O)c2ccc(Br)s2)CC(n2c(-c3ccccn3)nc3ccc(-c4nnco4)cc32)C1 (centres unmarked) [Example 285, N-(5-(6-(1,3,4-oxadiazol-2-yl)-2-(pyridin-2-yl)-1H-benzo[d]imidazol-1-yl)-1-acetylpiperidin-3-yl)-5-bromothiophene-2-carboxamide] | ≤ 100 nM |

Second part, the compound after the results:

| IC50 | SMILES |
| --- | --- |
| 100 to 500 nM | O=C(N[C@H]1C[C@@H](n2c(-c3ccccc3F)nc3cnc(-c4nc[nH]n4)cc32)CS(=O)(=O)C1)c1ccc(Cl)s1 [Example 457, 5-chloro-N-((3S,5R)-5-(2-(2-fluorophenyl)-6-(1H-1,2,4-triazol-3-yl)-1H-imidazo[4,5-c]pyridin-1-yl)-1,1-dioxidotetrahydro-2H-thiopyran-3-yl)thiophene-2-carboxamide] |
| > 1000 nM | N#C[C@H]1[C@@H](NC(=O)c2ncc(Cl)s2)CCC[C@H]1n1c(-c2ccccc2F)nc2cnc(-c3nc[nH]n3)cc21 [Example 452, 5-chloro-N-((1S,2S,3R)-2-cyano-3-(2-(2-fluorophenyl)-6-(1H-1,2,4-triazol-3-yl)-1H-imidazo[4,5-c]pyridin-1-yl)cyclohexyl)thiazole-2-carboxamide] |
| ≤ 100 nM | CC(C)Cc1nc2cnc(-c3ncc[nH]3)cc2n1[C@@H]1CCC[C@H](NC(=O)c2ncc(Cl)s2)C1 [Example 361, N-((1S,3R)-3-(6-(1H-imidazol-2-yl)-2-isobutyl-1H-imidazo[4,5-c]pyridin-1-yl)cyclohexyl)-5-chlorothiazole-2-carboxamide] |
| > 1000 nM | [N-]=[N+]=N[C@H]1[C@@H](NC(=O)c2ncc(Cl)s2)CCC[C@H]1n1c(-c2ccccc2F)nc2cnc(-c3nc[nH]n3)cc21 [Example 450, N-((1S,2S,3R)-2-azido-3-(2-(2-fluorophenyl)-6-(1H-1,2,4-triazol-3-yl)-1H-imidazo[4,5-c]pyridin-1-yl)cyclohexyl)-5-chlorothiazole-2-carboxamide] |
| 500 to 1000 nM | O=C(N[C@H]1CCC[C@@H](n2c(-c3ccccc3F)nc3cnc(-n4ccccc4=O)cc32)C1)c1ncc(Cl)s1 [Example 357, 5-chloro-N-((1S,3R)-3-(2-(2-fluorophenyl)-6-(2-oxopyridin-1(2H)-yl)-1H-imidazo[4,5-c]pyridin-1-yl)cyclohexyl)thiazole-2-carboxamide] |
| ≤ 100 nM | COCCOc1ccccc1-c1nc2cnc(-c3nc[nH]n3)cc2n1[C@@H]1CCC[C@H](NC(=O)c2ncc(Cl)s2)C1 [Example 464, 5-chloro-N-((1S,3R)-3-(2-(2-(2-methoxyethoxy)phenyl)-6-(1H-1,2,4-triazol-3-yl)-1H-imidazo[4,5-c]pyridin-1-yl)cyclohexyl)thiazole-2-carboxamide] |
| 100 to 500 nM | CC(C)[C@@H](N)c1nc2cnc(-c3ccccn3)cc2n1[C@@H]1CCC[C@H](NC(=O)c2ncc(Cl)s2)C1 [Example 167, N-((1S,3R)-3-(2-((R)-1-amino-2-methylpropyl)-6-(pyridin-2-yl)-1H-imidazo[4,5-c]pyridin-1-yl)cyclohexyl)-5-chlorothiazole-2-carboxamide] |
| > 1000 nM | COC[C@@H]1CCCN1c1cc2c(cn1)nc(-c1ccccc1F)n2[C@@H]1CCC[C@H](NC(=O)c2ncc(Cl)s2)C1 [Example 197, 5-chloro-N-((1S,3R)-3-(2-(2-fluorophenyl)-6-((S)-2-(methoxymethyl)pyrrolidin-1-yl)-1H-imidazo[4,5-c]pyridin-1-yl)cyclohexyl)thiazole-2-carboxamide] |
| 500 to 1000 nM | C[C@H]1CCCN1c1cc2c(cn1)nc(-c1ccccc1F)n2[C@@H]1CCC[C@H](NC(=O)c2ncc(Cl)s2)C1 [Example 194, 5-chloro-N-((1S,3R)-3-(2-(2-fluorophenyl)-6-((S)-2-methylpyrrolidin-1-yl)-1H-imidazo[4,5-c]pyridin-1-yl)cyclohexyl)thiazole-2-carboxamide] |
| 500 to 1000 nM | CO[C@H]1C[C@H](NC(=O)c2ncc(Cl)s2)C[C@H](n2c(-c3ccccc3F)nc3cnc(-n4nccn4)cc32)C1 (stereo in doubt) [Example 423, 5-chloro-N-((1R,3S,5S)-3-(2-(2-fluorophenyl)-6-(2H-1,2,3-triazol-2-yl)-1H-imidazo[4,5-c]pyridin-1-yl)-5-methoxycyclohexyl)thiazole-2-carboxamide] |
| 500 to 1000 nM | CN(C)Cc1ccccc1-c1nc2cnc(-c3nc[nH]n3)cc2n1[C@@H]1CCC[C@H](NC(=O)c2ncc(Cl)s2)C1 [Example 375, 5-chloro-N-((1S,3R)-3-(2-(2-((dimethylamino)methyl)phenyl)-6-(1H-1,2,4-triazol-3-yl)-1H-imidazo[4,5-c]pyridin-1-yl)cyclohexyl)thiazole-2-carboxamide] |
| ≤ 100 nM | CS(=O)(=O)N1C[C@@H](NC(=O)c2ncc(Cl)s2)C[C@@H](n2c(-c3ccccc3F)nc3cnc(-c4nc[nH]n4)cc32)C1 [Example 461, 5-chloro-N-((3S,5R)-5-(2-(2-fluorophenyl)-6-(1H-1,2,4-triazol-3-yl)-1H-imidazo[4,5-c]pyridin-1-yl)-1-(methylsulfonyl)piperidin-3-yl)thiazole-2-carboxamide] |
| > 1000 nM | CC(O)Cc1nc2cnc(-c3ccccn3)cc2n1[C@@H]1CCC[C@H](NC(=O)c2ncc(Cl)s2)C1 (stereo partly drawn) [Example 360, 5-chloro-N-((1S,3R)-3-(2-(2-hydroxypropyl)-6-(pyridin-2-yl)-1H-imidazo[4,5-c]pyridin-1-yl)cyclohexyl)thiazole-2-carboxamide] |
